Data reported in publication PMC12081876, “Identification of PTGR2 inhibitors as a new therapeutic strategy for diabetes and obesity” (EMBO Molecular Medicine, 2025).
Several values for one entry are separate records, joined by “and”; a condition that tells them apart may be missing. Identical values can stand only once.

Experiments:
mPPARγ LBD H351A mutant = target: T1, mPPARγ LBD H351A mutant (Mus musculus, UniProt P37238, H351A); assay: Native mass spectrometry ligand binding, mPPARγ LBD H351A; design: species or system murine
T1 construct: mPPARγ LBD H351A mutant
T1 sequence (P37238 238-503 H351A limits assumed): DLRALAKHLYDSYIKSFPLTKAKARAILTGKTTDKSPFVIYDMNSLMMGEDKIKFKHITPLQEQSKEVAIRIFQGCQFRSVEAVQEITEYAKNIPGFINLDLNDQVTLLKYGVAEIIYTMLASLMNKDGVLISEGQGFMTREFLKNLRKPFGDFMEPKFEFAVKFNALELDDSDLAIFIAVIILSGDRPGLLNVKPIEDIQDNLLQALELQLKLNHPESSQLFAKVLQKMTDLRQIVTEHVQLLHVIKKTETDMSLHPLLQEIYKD
Experimental: Wide-type mPPARγ ligand binding domain (LBD), mPPARγ LBD C313A mutant, and mPPARγ LBD H351A mutant were mixed together in a 1:1:1 molar ratio and then incubated with 15-keto-PEG2 or pioglitazone in a 1:10 molar ratio for 5 min at room temperature, respectively. The protein mixture was buffer-exchanged into 500 mM ammonium acetate buffer pH 7.5 using 7 K Zeba™ Spin Desalting Column (cat. no, 89877, Thermo) and immediately introduced into a modified Q-Exactive mass spectrometer (Thermo). The sets of optimized parameters were applied to analyze the ligand binding, including the higher-energy collisional dissociation (HCD) energy of 20 V; spray voltage, 1.1 kV; capillary temperature, 200 °C; S-lens RF level, 200; and resolution, 12,500 at m/z 400. Spectra were acquired and processed manually using Thermo Xcalibur Qual Browser (version 4.4.16.14). The relative percentage of compound-bound forms was quantified by the UniDec software and the degree of effector coupling was calculated by normalizing the relative percentage of bound forms to the sum of the percentage of unbound and bound forms.

[1] = Pharmacokinetic study in male ICR mice; assay type: in vivo, mouse; conditions: plasma
Experimental: Male ICR mice weighing 25–30 g each were obtained from BioLASCO, Taiwan Co., Ltd., Ilan, Taiwan for pharmacokinetic study. Briefly, a single dose of BRRPT245 was given intravenously at 2 mg/kg or oral gavage at 10 mg/kg to the mice. Blood samples were taken at 0 (immediately before dosing), 2, 5 (iv only), 15 and 30 min and at 1, 2, 4, 6, 8, 16, and 24 h after administration. The T1/2 (half-life), Cl (clearance), Vss (steady-state volume of distribution), AUC (area under curve), Cmax (maximum plasma concentration), Tmax (time taken to reach Cmax), and F(bioavailability%) were calculated according to the published formula (Urso et al, [2002]).
The HPLC system consisted of an Agilent 1200 series LC System with BinPump (Waldbronn, Germany) and an Agilent Eclipse XDB C8 (3.0 × 150 mm, 5 µm) interfaced to a Sciex API 4000 tandem mass spectrometer. Mobile phase consisted of 10 mM ammonium acetate containing 0.1% of formic acid (Solvent A) and acetonitrile (Solvent B). For determination of BPTPT0245, the following stepwise gradient system was used: 85% A (0–0.5 min), 85% A to 15% A (0.6–3.0 min), 5% A (3.1–5.0 min). Total running time was 5 min. The retention times of BPRPT0245 and BPR0L187 (internal standard) (IS) were 2.21 and 2.42 min, respectively. Data acquisition was via selected ion monitoring (SIM). The collision energy was +37 V for the analyte and +38.5 V for IS, respectively. The ions monitored for BPRPT0245 were m/z 447/189 and m/z 357/195, respectively. […] Total running time was 6 min. […] Data acquisition was via SIM.
To prepare the BPRPT0245 plasma samples, 50 µL of the plasma sample mixed with 100 µL acetonitrile containing […] of BPR0L187. The mixture was vortexed for 30 s and then centrifuged at 15,000 rpm for 20 min in an Eppendorf Model 5417c centrifuge at room temperature. An aliquot (5 µL) of the mixture was then injected onto to LC-MS/MS.

[2] = Necropsy, gross and histopathological examination; assay type: in vivo, mouse; design: key to Brain, Forebrain / Brain, Cerebellum and Pons / Heart: Vacuolation, cardiomyocyte / Lung: Alveolar epithelium hyperplasia / Lung: Chronic inflammation, focal / Liver: Hepatocellular adenoma, multiple / Brain, Midbrain / Kidney: Hyaline cast, renal tubule / Kidney: Cytoplasmic vacuolation, renal tubule / Kidney: Mineralization, renal tubule / Pancreas: Atrophy and accumulation adipocyte, acinar cell / Pancreas: Pancreatic islets hyperplasia / Pancreas: Lymphocytic infiltration, perivascular / Brown fat: Increased adipocyte size / White fat (Perigonadal fat) / Bone marrow, Sternum/ Femur / Bone marrow: Mineralization, focal / Bone marrow: Cellularity, decreased, bone marrow: + = Present; - =Not present; X=Not remarkable lesion; 1 = minimal (< 1%); 2 = mild (1–25%); 3 = moderate (26–50%); 4 = moderately severe (51–75%); 5 = severe/high (76–100%); conditions: for overall toxicity / pathology conclusion: mice treated 26 weeks
Experimental: The animals were sacrificed by exsanguination under anesthesia with pure carbon dioxide.
At necropsy, tissue samples of the submitted mice were collected and preserved in 10% neutral buffered formalin. The required tissues/organs of animals were trimmed, processed, and embedded in paraffin. Sections 3–5 μm in thickness were cut and put on slides for hematoxylin and eosin (H&E) staining. The histopathological evaluation was performed on the submitted tissues. Severity of lesions was graded according to the methods described (Shackelford et al, [2002]). Degrees of lesions were graded histopathologically from one to five depending on severity (1 = minimal; 2 = slight; 3 = moderate; 4 = moderately severe; 5 = severe/high).

[3] = Test group, one animal, 26 weeks
[4] = Test group, one value per animal, 26 weeks

CCCCCC(=O)/C=C/[C@H]1[C@H](O)CC(=O)[C@@H]1C/C=C\CCCC(=O)O [15-keto-PGE2, 15-keto-prostaglandin E2]
effect of H351A mutation on binding (native MS) (mPPARγ LBD H351A mutant): only a minor impact on 15-keto-PGE2 binding

Cc1[nH]c2nc(C(C)N3CCN(c4ccccc4)CC3)nn2c(=O)c1Cc1ccc(F)cc1 (centres unmarked) [BPRPT0245]
AUC(0-inf) ([1]; Mouse IV, dose 2 mg/kg): 480 ng·h/mL | clearance ([1]; Mouse IV, dose 2 mg/kg): 79.5 mL/min/kg | half-life ([1]; Mouse IV, dose 2 mg/kg): 2 h | Vd ([1]; Mouse IV, dose 2 mg/kg, read-out: Vss): 5 L/kg | AUC(0-inf) ([1]; Mouse PO, dose 10 mg/kg): 725 ng·h/mL | Cmax ([1]; Mouse PO, dose 10 mg/kg): 398 ng/mL | Tmax ([1]; Mouse PO, dose 10 mg/kg): 0.4 h | half-life ([1]; Mouse PO, dose 10 mg/kg): 2.5 h | bioavailability ([1]; Mouse PO, dose 10 mg/kg, read-out: F(%) bioavailability): 30.2% | Pathological examination of bone marrow, brain, heart, lung, kidney, pancreas, brown fat, perigonadal fat ([2]; 26 weeks, vs vehicle): no significant difference | White fat (Perigonadal fat) ([2]; Test group, first two animals, 26 weeks): X | White fat (Perigonadal fat): Inflammatory cell infiltration ([2]; Test group, last two animals, 26 weeks): 1 (1 = minimal (< 1%)) and 2 (2 = mild (1–25%)) | Bone marrow: Cellularity, decreased, bone marrow [2, 3]: - | Bone marrow: Infiltration, lymphocyte [2, 3]: 1 (1 = minimal (< 1%)) | Bone marrow: Mineralization, focal [2, 3]: - | Brain, Forebrain ([2]; Test group, one value per animal (T1,T2,T2[sic],T4), 26 weeks): X | Brain, Cerebellum and Pons [2, 4]: X | Brain, Midbrain [2, 4]: X | Brown fat: Increased adipocyte size [2, 4]: + | Heart: Inflammatory cell infiltration/Cardiomyopathy [2, 4]: 2 (2 = mild (1–25%)) (3×) and 1 (1 = minimal (< 1%)) | Heart: Vacuolation, cardiomyocyte [2, 4]: - (3×) and 2 (2 = mild (1–25%)) | Kidney: Cytoplasmic vacuolation, renal tubule [2, 4]: 2 (2 = mild (1–25%)) (3×) and - | Kidney: Hyaline cast, renal tubule [2, 4]: 1 (1 = minimal (< 1%)) and - (3×) | Kidney: Inflammatory cell infiltration, peripelvic /perivacscular [2, 4]: 2 (2 = mild (1–25%)) (3×) and 1 (1 = minimal (< 1%)) | Kidney: Mineralization, renal tubule [2, 4]: 1 (1 = minimal (< 1%)) and - (3×) | Kidney: Tubular degeneration/regeneration with inflammatory cell infiltration [2, 4]: 2 (2 = mild (1–25%)) | Liver: Hepatocellular adenoma, multiple [2, 4]: - | Liver: Inflammation [2, 4]: 1 (1 = minimal (< 1%)) (2×) and 2 (2 = mild (1–25%)) (2×) | Liver: Lymphocytic cell infiltration, perivascular [2, 4]: 1 (1 = minimal (< 1%)) (2×) and 2 (2 = mild (1–25%)) (2×) | Liver: Steatosis [2, 4]: 2 (2 = mild (1–25%)) (2×) and 4 (4 = moderately severe (51–75%)) (2×) | Lung: Alveolar epithelium hyperplasia [2, 4]: 2 (2 = mild (1–25%)) and - (3×) | Lung: Chronic inflammation, focal [2, 4]: 1 (1 = minimal (< 1%)) (2×) and - (2×) | Lung: Inflammatory cell infiltration, perivascular [2, 4]: 1 (1 = minimal (< 1%)) (2×) and 2 (2 = mild (1–25%)) (2×) | Pancreas: Atrophy and accumulation adipocyte, acinar cell [2, 4]: - | Pancreas: Fat infiltration, exocrine [2, 4]: 2 (2 = mild (1–25%)) (2×) and 1 (1 = minimal (< 1%)) (2×) | Pancreas: Lymphocytic infiltration, perivascular [2, 4]: - (2×) and 2 (2 = mild (1–25%)) (2×) | Pancreas: Pancreatic islets hyperplasia [2, 4]: 1 (1 = minimal (< 1%)) (2×) and - (2×) | Bone marrow, Sternum/ Femur ([2]; Test group, three animals, 26 weeks): X | overall toxicity / pathology conclusion [2]: no detectable toxicity | overall toxicity / pathology conclusion ([2]; listed as test article): not related
